In PMC9519552, “Activation of the human insulin receptor by non-insulin-related peptides” (Nature Communications, 2022):
Like-named read-outs stand apart in the source and are kept apart here. Positions of bridges follow the written chain, without caps; N, C: chain ends. Residues, ends and D or L forms follow the SMILES beside them. *: point of attachment. PhAc = O=C(Cc1ccccc1)*

Key:
human IR-A (holoIR-A) = target: T1, human IR-A (holoIR-A) (Homo sapiens, UniProt P06213); test: holoIR-A competitive radioligand binding assay (scintillation proximity assay); settings: for Ki: primary peptide set, mean of 3 runs, read-out: IRA Binding Ki Mean; for weaker affinity for hIR-A than BHI: relative to biosynthetic human insulin
T1 construct: expressed in transfected cells; host or cells: HEK293 (ATCC #CRL-1573), stably transfected; membrane preparation
Method in brief: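 Membranes from HEK293 cells stably expressing C9-tagged human IR-A were used in a WGA-bead SPA competition assay in 50 mM Tris-HCl pH 7.5, 150 mM NaCl, 0.1% fatty-acid-free BSA. Ten-point 3-fold dilutions were incubated 10 h at room temperature before scintillation counting. Percent specific inhibition was calculated after nonspecific-binding correction, from three independent runs.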

[1] = target: T2, human holoIR-A over-expressed in HEK293 cells (Homo sapiens, UniProt P06213); test: holoIR-A auto-phosphorylation assay (ELISA); type: cell-based
T2 construct: expressed in transfected cells; host or cells: HEK293, stably transfected
Experimental: Phosphorylation was quantified using an ELISA technique. Ninety-six well, flat-bottom microplates (Greiner Bio-One) were pre-coated with 2 µg mL^−1 anti-C9 monoclonal antibody (Rho 1D4; University of British Columbia)[27] in 20 mM sodium carbonate, pH 9.6, at 4 °C for overnight prior to the assay. On the assay day, plates were washed 3× with 0.1% Tween in 50 mM Tris Buffer Saline, pH 7.5 (TBST), and then blocked for greater than 1 h at room temperature (RT) with 1% BSA (Sigma) in TBST.
Stably transfected HEK293 cells over-expressing human holoIR-A containing a C-terminal C9 epitope tag ([…]), were plated at 6 × 10^4 cells per well serum-starved using 0.1% BSA in DMEM (Gibco) for overnight at standard tissue culture condition. […] After a 15-min incubation in lysis buffer at 4 °C, the lysate was transferred to anti-C9 antibody coated capture plate (Rho 1D4; University of British Columbia)[27]. […] After a 1 h incubation at room temperature, the secondary antibody was removed by washing 3× with TBST. Signal detection occurred with the addition of TMB, an HRP substrate (Pierce). After 5–10 min, the reaction was stopped by adding an equal volume of 2 M H2SO4, and the absorbance readings at 450 nm (A450) were recorded using a Envision plate reader (PerkinElmer). Samples were tested in three independent assay runs on three different days.
Percent specific response (y-axis) was plotted versus the log concentration of compound (x-axis) using Prism Version 9.3.1 (GraphPad Software). Individual measurements are provided as Source Data.

[2] = target: T2, human holoIR-A over-expressed in HEK293 cells; test: Inhibition of hIR phosphorylation by peptides, co-incubated with BHI at its EC50 (ELISA); type: cell-based
Method in brief: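 Phosphorylation ELISA (TMB, A450) after anti-C9 capture of lysates from stably transfected HEK293 cells expressing C-terminally C9-tagged human holoIR-A, serum-starved overnight in 0.1% BSA/DMEM. Percent specific response versus log concentration, from three independent runs on three days.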

[3] = Fig. 1b, HEK293 hIR-A cells, 1 h 37 °C, ELISA, errors given as SEM, n = 3 independent replicates, read-out: Auto-phosphorylation constant EC50
[4] = primary peptide set, mean of 3 runs, read-out: hIRA Phosph EC50 Mean

T2 sequence (P06213 28-1370 isoform P06213-2 limits assumed): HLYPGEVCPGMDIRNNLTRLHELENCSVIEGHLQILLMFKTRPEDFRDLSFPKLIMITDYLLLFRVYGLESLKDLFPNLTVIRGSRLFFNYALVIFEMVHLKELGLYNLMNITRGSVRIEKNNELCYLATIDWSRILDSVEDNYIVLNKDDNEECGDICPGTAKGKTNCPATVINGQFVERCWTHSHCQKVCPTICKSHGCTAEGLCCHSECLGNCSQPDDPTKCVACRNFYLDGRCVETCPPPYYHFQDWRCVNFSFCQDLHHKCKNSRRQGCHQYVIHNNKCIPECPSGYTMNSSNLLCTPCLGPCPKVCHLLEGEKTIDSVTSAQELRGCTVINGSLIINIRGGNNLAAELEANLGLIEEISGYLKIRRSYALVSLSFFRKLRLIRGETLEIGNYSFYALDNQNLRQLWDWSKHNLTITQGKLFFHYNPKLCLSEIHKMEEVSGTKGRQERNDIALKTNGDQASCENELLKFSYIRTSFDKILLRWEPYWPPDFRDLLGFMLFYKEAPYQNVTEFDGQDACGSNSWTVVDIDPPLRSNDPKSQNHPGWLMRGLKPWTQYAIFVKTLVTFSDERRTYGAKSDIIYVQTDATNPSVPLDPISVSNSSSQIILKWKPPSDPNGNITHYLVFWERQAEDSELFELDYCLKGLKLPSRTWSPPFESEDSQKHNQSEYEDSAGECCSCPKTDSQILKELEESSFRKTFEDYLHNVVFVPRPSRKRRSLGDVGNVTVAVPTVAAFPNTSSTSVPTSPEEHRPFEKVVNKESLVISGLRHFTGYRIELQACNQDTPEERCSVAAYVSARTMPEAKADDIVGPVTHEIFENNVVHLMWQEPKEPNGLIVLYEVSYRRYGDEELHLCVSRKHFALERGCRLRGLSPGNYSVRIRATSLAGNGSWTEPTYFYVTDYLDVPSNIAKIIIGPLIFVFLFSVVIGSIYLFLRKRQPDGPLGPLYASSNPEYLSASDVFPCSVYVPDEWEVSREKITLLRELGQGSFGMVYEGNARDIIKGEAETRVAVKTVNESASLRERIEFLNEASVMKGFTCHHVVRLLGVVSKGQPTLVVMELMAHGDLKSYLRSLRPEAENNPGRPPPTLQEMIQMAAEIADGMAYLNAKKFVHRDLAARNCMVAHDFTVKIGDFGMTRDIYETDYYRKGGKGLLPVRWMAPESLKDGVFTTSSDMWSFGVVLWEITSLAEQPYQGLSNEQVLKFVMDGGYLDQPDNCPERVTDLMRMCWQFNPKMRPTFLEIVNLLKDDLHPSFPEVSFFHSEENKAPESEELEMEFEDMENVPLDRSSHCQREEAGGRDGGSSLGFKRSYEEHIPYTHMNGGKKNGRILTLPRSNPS
T2 sequence (P06213 763-1382 partner limits assumed): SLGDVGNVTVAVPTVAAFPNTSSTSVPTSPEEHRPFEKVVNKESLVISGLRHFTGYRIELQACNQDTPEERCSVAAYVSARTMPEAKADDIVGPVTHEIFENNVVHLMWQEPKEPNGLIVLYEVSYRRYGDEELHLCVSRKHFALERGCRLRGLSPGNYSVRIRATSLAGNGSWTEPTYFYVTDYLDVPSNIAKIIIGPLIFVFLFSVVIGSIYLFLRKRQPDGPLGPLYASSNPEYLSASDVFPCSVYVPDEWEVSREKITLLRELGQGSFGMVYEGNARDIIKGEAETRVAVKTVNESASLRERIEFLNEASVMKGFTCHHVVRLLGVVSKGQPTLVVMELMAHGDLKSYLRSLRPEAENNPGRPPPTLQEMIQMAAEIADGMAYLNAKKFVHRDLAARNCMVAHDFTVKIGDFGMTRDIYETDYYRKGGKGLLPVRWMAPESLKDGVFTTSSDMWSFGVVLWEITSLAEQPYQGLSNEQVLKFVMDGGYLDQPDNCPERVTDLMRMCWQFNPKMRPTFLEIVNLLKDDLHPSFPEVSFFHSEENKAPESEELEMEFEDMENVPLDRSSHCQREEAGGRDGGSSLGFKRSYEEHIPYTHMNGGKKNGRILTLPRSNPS
T1 sequence (P06213 28-1370 isoform P06213-2 limits assumed): as the sequence (P06213 28-1370 isoform P06213-2 limits assumed) above
T1 sequence (P06213 763-1382 partner limits assumed): as the sequence (P06213 763-1382 partner limits assumed) above

| SMILES | Ki (human IR-A (holoIR-A)) [µM] | weaker affinity for hIR-A than BHI (human IR-A (holoIR-A)) [fold] | activity in hIR autophosphorylation assay (in words) [1] | EC50 [1, 3] [µM] | EC50 [1, 4] [µM] | hIRA Phosph EC50 Run 1 ([1]; primary peptide set) [µM] | hIRA Phosph EC50 Run 2 ([1]; primary peptide set) [µM] | hIRA Phosph EC50 Run 3 ([1]; primary peptide set) [µM] | hIRA Phosph IC50 Run 1 ([2]; inhibition of insulin-stimulated phosphorylation, BHI at its EC50, run 1) [µM] | hIRA Phosph IC50 Run 2 ([2]; inhibition of insulin-stimulated phosphorylation, BHI at its EC50, run 2) [µM] | hIRA Phosph IC50 Run 3 ([2]; inhibition of insulin-stimulated phosphorylation, BHI at its EC50, run 3) [µM] | IC50 ([2]; read-out: hIRA Phosph IC50 Mean) [µM] |
| --- | --- | --- | --- | --- | --- | --- | --- | --- | --- | --- | --- | --- |
| COc1ccc(C[C@H](NC(=O)[C@H](CO)NC(=O)[C@H](CCC(=O)O)NC(=O)[C@H](CO)NC(=O)[C@@H]2CCCN2C(C)=O)C(=O)N[C@@H](Cc2ccc(O)cc2)C(=O)N[C@@H](CCCCN)C(=O)N[C@@H](Cc2c[nH]c3ccccc23)C(=O)N[C@@H](Cc2ccccc2)C(=O)N[C@@H](CCC(=O)O)C(=O)N[C@@H](CCCNC(=N)N)C(=O)N[C@@H](CCC(N)=O)C(=O)N[C@@H](CC(C)C)C(N)=O)cc1 [IM172C13] (Ac-PSESY(Me)YKWFERQL-NH2) | 0.31 | ~1000 | devoid of detectable activity | > 10 | > 10 | >10 | >10 | >10 |  |  |  |  |
| CC[C@H](C)[C@H](NC(=O)[C@H](CCC(N)=O)NC(=O)[C@H](C)NC(=O)[C@H](Cc1c[nH]c2ccccc12)NC(=O)[C@H](CCC(=O)O)NC(=O)[C@H](CCC(=O)O)NC(=O)[C@H](CCC(=O)O)NC(=O)[C@H](CC(C)C)NC(=O)[C@H](CO)NC(=O)Cc1ccccc1)C(=O)N[C@@H](CCC(=O)O)C(=O)N[C@H]1CSSC[C@@H](C(=O)N2CCC[C@H]2C(=O)N2CCC[C@H]2C(=O)N[C@@H](CO)C(=O)N[C@@H](CCC(=O)O)C(=O)N[C@@H](CO)C(N)=O)NC(=O)[C@H](CCCNC(=N)N)NC(=O)CNC(=O)[C@H](Cc2ccc(O)cc2)NC(=O)[C@H](C(C)C)NC(=O)[C@H](CCC(=O)O)NC1=O [IM172N22] (PhAc-SLEEEWAQIECEVYGRCPPSES-NH2; disulfide 11-17) | 0.00308 | ~10 | devoid of detectable activity | > 1 | > 1 | >1 | >1 | >1 | 0.017 | 0.017 | 0.017 | 0.0169 |
| CC(C)C[C@H](NC(=O)[C@H](CCC(N)=O)NC(=O)[C@H](CCCNC(=N)N)NC(=O)[C@H](CCC(=O)O)NC(=O)[C@H](Cc1ccccc1)NC(=O)[C@H](Cc1c[nH]c2ccccc12)NC(=O)[C@H](CC(=O)O)NC(=O)[C@H](Cc1ccc(O)cc1)NC(=O)[C@H](Cc1ccccc1)NC(=O)[C@H](CO)NC(=O)[C@H](CCC(=O)O)NC(=O)[C@H](CC(=O)O)NC(=O)[C@H](CC(C)C)NC(=O)[C@H](CO)NC(=O)CNC(=O)[C@H](CO)NC(=O)[C@@H]1CCCN1C(=O)[C@@H]1CSSC[C@H](NC(=O)[C@H](CCC(=O)O)NC(=O)[C@@H](NC(=O)[C@H](CCC(N)=O)NC(=O)[C@H](C)NC(=O)[C@H](Cc2c[nH]c3ccccc23)NC(=O)[C@H](CCC(=O)O)NC(=O)[C@H](CCC(=O)O)NC(=O)[C@H](CCC(=O)O)NC(=O)[C@H](CC(C)C)NC(=O)[C@@H](N)CO)C(C)C)C(=O)N[C@@H](CCC(=O)O)C(=O)N[C@@H](C(C)C)C(=O)N[C@@H](Cc2ccc(O)cc2)C(=O)NCC(=O)N[C@@H](CCCNC(=N)N)C(=O)NCC(=O)N1)C(=O)NCC(=O)O [Peptide S519, reference compound] (H-SLEEEWAQVECEVYGRGCPSGSLDESFYDWFERQLG-OH; disulfide 11-18) | 0.00318 |  |  |  | 0.00605 |  |  |  |  |  |  |  |
